Measurements taken from PubChem BioAssay (NCI).
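Each compound was tested at five concentrations against cells in 96-well plates for 48 hours. GI50: concentration for 50% inhibition of growth. TGI: total growth inhibition.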

Experiments:
Assay in all cases: DTP human tumour cell line panel, 48 h
786-0 renal = system: 786-0 renal
A498 renal = system: A498 renal
A549 NSCLC = system: A549 NSCLC
ACHN renal = system: ACHN renal
BT-549 breast = system: BT-549 breast
CAKI-1 renal = system: CAKI-1 renal
CCRF-CEM leukemia = system: CCRF-CEM leukemia
COLO 205 colon = system: COLO 205 colon
DU-145 prostate = system: DU-145 prostate
EKVX NSCLC = system: EKVX NSCLC
HCC-2998 colon = system: HCC-2998 colon
HCT-116 colon = system: HCT-116 colon
HCT-15 colon = system: HCT-15 colon
HL-60(TB) leukemia = system: HL-60(TB) leukemia
HOP-62 NSCLC = system: HOP-62 NSCLC
HOP-92 NSCLC = system: HOP-92 NSCLC
HS 578T breast = system: HS 578T breast
HT29 colon = system: HT29 colon
IGROV1 ovarian = system: IGROV1 ovarian
K-562 leukemia = system: K-562 leukemia
KM12 colon = system: KM12 colon
LOX IMVI melanoma = system: LOX IMVI melanoma
M14 melanoma = system: M14 melanoma
MALME-3M melanoma = system: MALME-3M melanoma
MCF7 breast = system: MCF7 breast
MDA-MB-231 breast = system: MDA-MB-231 breast
MDA-MB-435 = system: MDA-MB-435
MOLT-4 leukemia = system: MOLT-4 leukemia
NCI-H23 lung = system: NCI-H23 lung
NCI-H460 lung = system: NCI-H460 lung
NCI-H522 lung = system: NCI-H522 lung
NCI/ADR-RES ovarian = system: NCI/ADR-RES ovarian
OVCAR-3 ovarian = system: OVCAR-3 ovarian
OVCAR-5 ovarian = system: OVCAR-5 ovarian
OVCAR-8 ovarian = system: OVCAR-8 ovarian
PC-3 prostate = system: PC-3 prostate
RPMI-8226 leukemia = system: RPMI-8226 leukemia
RXF 393 renal = system: RXF 393 renal
SF-268 CNS = system: SF-268 CNS
SF-295 CNS = system: SF-295 CNS
SF-539 CNS = system: SF-539 CNS
SK-MEL-2 melanoma = system: SK-MEL-2 melanoma
SK-MEL-28 melanoma = system: SK-MEL-28 melanoma
SK-MEL-5 melanoma = system: SK-MEL-5 melanoma
SK-OV-3 ovarian = system: SK-OV-3 ovarian
SNB-19 CNS = system: SNB-19 CNS
SR leukemia = system: SR leukemia
SW-620 colon = system: SW-620 colon
T-47D breast = system: T-47D breast
TK-10 renal = system: TK-10 renal
U251 CNS = system: U251 CNS
UACC-257 melanoma = system: UACC-257 melanoma
UACC-62 melanoma = system: UACC-62 melanoma
UO-31 renal = system: UO-31 renal
NCI-H226 lung = system: NCI-H226 lung
OVCAR-4 ovarian = system: OVCAR-4 ovarian
SN12C renal = system: SN12C renal
SNB-75 CNS = system: SNB-75 CNS

Compound: COc1cc(Nc2nc3ccccc3n3cccc23)cc(OC)c1OC
- TGI (786-0 renal): > 100 µM
- TGI (A498 renal): > 100 µM
- TGI (A549 NSCLC): > 100 µM
- TGI (ACHN renal): > 100 µM
- TGI (BT-549 breast): > 100 µM
- TGI (CAKI-1 renal): > 100 µM
- TGI (CCRF-CEM leukemia): > 100 µM
- TGI (COLO 205 colon): > 100 µM
- TGI (DU-145 prostate): > 100 µM
- TGI (EKVX NSCLC): > 100 µM
- TGI (HCC-2998 colon): > 100 µM
- TGI (HCT-116 colon): > 100 µM
- TGI (HCT-15 colon): > 100 µM
- TGI (HL-60(TB) leukemia): > 100 µM
- TGI (HOP-62 NSCLC): 72.9 µM
- TGI (HOP-92 NSCLC): > 100 µM
- TGI (HS 578T breast): > 100 µM
- TGI (HT29 colon): > 100 µM
- TGI (IGROV1 ovarian): > 100 µM
- TGI (K-562 leukemia): > 100 µM
- TGI (KM12 colon): > 100 µM
- TGI (LOX IMVI melanoma): > 100 µM
- TGI (M14 melanoma): > 100 µM
- TGI (MALME-3M melanoma): > 100 µM
- TGI (MCF7 breast): > 100 µM
- TGI (MDA-MB-231 breast): > 100 µM
- TGI (MDA-MB-435): > 100 µM
- TGI (MOLT-4 leukemia): > 100 µM
- TGI (NCI-H23 lung): > 100 µM
- TGI (NCI-H460 lung): > 100 µM
- TGI (NCI-H522 lung): > 100 µM
- TGI (NCI/ADR-RES ovarian): > 100 µM
- TGI (OVCAR-3 ovarian): > 100 µM
- TGI (OVCAR-5 ovarian): > 100 µM
- TGI (OVCAR-8 ovarian): > 100 µM
- TGI (PC-3 prostate): > 100 µM
- TGI (RPMI-8226 leukemia): > 100 µM
- TGI (RXF 393 renal): 99.6 µM
- TGI (SF-268 CNS): > 100 µM
- TGI (SF-295 CNS): > 100 µM
- TGI (SF-539 CNS): > 100 µM
- TGI (SK-MEL-2 melanoma): > 100 µM
- TGI (SK-MEL-28 melanoma): > 100 µM
- TGI (SK-MEL-5 melanoma): > 100 µM
- TGI (SK-OV-3 ovarian): > 100 µM
- TGI (SNB-19 CNS): > 100 µM
- TGI (SR leukemia): > 100 µM
- TGI (SW-620 colon): > 100 µM
- TGI (T-47D breast): 821 nM
- TGI (TK-10 renal): > 100 µM
- TGI (U251 CNS): > 100 µM
- TGI (UACC-257 melanoma): > 100 µM
- TGI (UACC-62 melanoma): > 100 µM
- TGI (UO-31 renal): > 100 µM

Compound: O=c1c2c([nH]c3ccccc13)CCCC2
- GI50 (786-0 renal): > 100 µM
- TGI (786-0 renal): > 100 µM
- GI50 (A498 renal): 1740 nM
- TGI (A498 renal): 55.8 µM
- GI50 (A549 NSCLC): > 100 µM
- TGI (A549 NSCLC): > 100 µM
- GI50 (ACHN renal): > 100 µM
- TGI (ACHN renal): > 100 µM
- GI50 (BT-549 breast): > 100 µM
- TGI (BT-549 breast): > 100 µM
- GI50 (CAKI-1 renal): > 100 µM
- TGI (CAKI-1 renal): > 100 µM
- GI50 (CCRF-CEM leukemia): > 100 µM
- TGI (CCRF-CEM leukemia): > 100 µM
- GI50 (COLO 205 colon): > 100 µM
- TGI (COLO 205 colon): > 100 µM
- GI50 (DU-145 prostate): > 100 µM
- TGI (DU-145 prostate): > 100 µM
- GI50 (HCC-2998 colon): > 100 µM
- TGI (HCC-2998 colon): > 100 µM
- GI50 (HCT-116 colon): > 100 µM
- TGI (HCT-116 colon): > 100 µM
- GI50 (HCT-15 colon): > 100 µM
- TGI (HCT-15 colon): > 100 µM
- GI50 (HL-60(TB) leukemia): > 100 µM
- TGI (HL-60(TB) leukemia): > 100 µM
- GI50 (HOP-62 NSCLC): > 100 µM
- TGI (HOP-62 NSCLC): > 100 µM
- GI50 (HOP-92 NSCLC): 78.4 µM
- TGI (HOP-92 NSCLC): > 100 µM
- GI50 (HS 578T breast): > 100 µM
- TGI (HS 578T breast): > 100 µM
- GI50 (HT29 colon): > 100 µM
- TGI (HT29 colon): > 100 µM
- GI50 (IGROV1 ovarian): > 100 µM
- TGI (IGROV1 ovarian): > 100 µM
- GI50 (K-562 leukemia): > 100 µM
- TGI (K-562 leukemia): > 100 µM
- GI50 (KM12 colon): > 100 µM
- TGI (KM12 colon): > 100 µM
- GI50 (LOX IMVI melanoma): > 100 µM
- TGI (LOX IMVI melanoma): > 100 µM
- GI50 (MALME-3M melanoma): > 100 µM
- TGI (MALME-3M melanoma): > 100 µM
- GI50 (MCF7 breast): > 100 µM
- TGI (MCF7 breast): > 100 µM
- GI50 (MDA-MB-231 breast): > 100 µM
- TGI (MDA-MB-231 breast): > 100 µM
- GI50 (MDA-MB-435): > 100 µM
- TGI (MDA-MB-435): > 100 µM
- GI50 (MOLT-4 leukemia): > 100 µM
- TGI (MOLT-4 leukemia): > 100 µM
- GI50 (NCI-H226 lung): > 100 µM
- TGI (NCI-H226 lung): > 100 µM
- GI50 (NCI-H23 lung): > 100 µM
- TGI (NCI-H23 lung): > 100 µM
- GI50 (NCI-H460 lung): > 100 µM
- TGI (NCI-H460 lung): > 100 µM
- GI50 (NCI-H522 lung): > 100 µM
- TGI (NCI-H522 lung): > 100 µM
- GI50 (NCI/ADR-RES ovarian): > 100 µM
- TGI (NCI/ADR-RES ovarian): > 100 µM
- GI50 (OVCAR-3 ovarian): > 100 µM
- TGI (OVCAR-3 ovarian): > 100 µM
- GI50 (OVCAR-4 ovarian): 37 µM
- TGI (OVCAR-4 ovarian): > 100 µM
- GI50 (OVCAR-5 ovarian): > 100 µM
- TGI (OVCAR-5 ovarian): > 100 µM
- GI50 (OVCAR-8 ovarian): > 100 µM
- TGI (OVCAR-8 ovarian): > 100 µM
- GI50 (PC-3 prostate): > 100 µM
- TGI (PC-3 prostate): > 100 µM
- GI50 (RPMI-8226 leukemia): 81.5 µM
- TGI (RPMI-8226 leukemia): > 100 µM
- GI50 (RXF 393 renal): > 100 µM
- TGI (RXF 393 renal): > 100 µM
- GI50 (SF-268 CNS): > 100 µM
- TGI (SF-268 CNS): > 100 µM
- GI50 (SF-295 CNS): > 100 µM
- TGI (SF-295 CNS): > 100 µM
- GI50 (SF-539 CNS): > 100 µM
- TGI (SF-539 CNS): > 100 µM
- GI50 (SK-MEL-2 melanoma): 60.4 µM
- TGI (SK-MEL-2 melanoma): > 100 µM
- GI50 (SK-MEL-28 melanoma): > 100 µM
- TGI (SK-MEL-28 melanoma): > 100 µM
- GI50 (SK-MEL-5 melanoma): 45.3 µM
- TGI (SK-MEL-5 melanoma): > 100 µM
- GI50 (SK-OV-3 ovarian): > 100 µM
- TGI (SK-OV-3 ovarian): > 100 µM
- GI50 (SN12C renal): > 100 µM
- TGI (SN12C renal): > 100 µM
- GI50 (SNB-19 CNS): > 100 µM
- TGI (SNB-19 CNS): > 100 µM
- GI50 (SNB-75 CNS): > 100 µM
- TGI (SNB-75 CNS): > 100 µM
- GI50 (SR leukemia): > 100 µM
- TGI (SR leukemia): > 100 µM
- GI50 (SW-620 colon): > 100 µM
- TGI (SW-620 colon): > 100 µM
- GI50 (T-47D breast): > 100 µM
- TGI (T-47D breast): > 100000 nM
- GI50 (TK-10 renal): > 100 µM
- TGI (TK-10 renal): > 100 µM
- GI50 (U251 CNS): > 100 µM
- TGI (U251 CNS): > 100 µM
- GI50 (UACC-257 melanoma): > 100 µM
- TGI (UACC-257 melanoma): > 100 µM
- GI50 (UACC-62 melanoma): > 100 µM
- TGI (UACC-62 melanoma): > 100 µM
- GI50 (UO-31 renal): 49.7 µM
- TGI (UO-31 renal): > 100 µM
